The source of these data is US20170121344A1 (Siga Technologies, Inc., priority 2009, published 2017).

Read-outs that look alike come from different tables or passages of the source.

One data set relates to four serotypes of dengue. Description: Yield assays against each of the four serotypes of dengue. Format: cell-based, Dengue virus. The conditions noted are these: all four serotypes. As to the method:
Initially, the chemical structures of the hit compounds were examined for chemical tractability. […] Hits that passed this medicinal chemistry filter were evaluated for their potency. Compound potency was determined by evaluating inhibitory activity across a broad range of concentrations. Nonlinear regression was used to generate best-fit inhibition curves and to calculate the 50% effective concentration (EC50). The selectivity or specificity of a given compound is typically expressed as a ratio of its cytotoxicity to its biological effect. A cell proliferation assay is used to calculate a 50% cytotoxicity concentration (CC50); the ratio of this value to the EC50 is referred to as the therapeutic index (T.I.=CC50/EC50). Two types of assays have been used to determine cytotoxicity, both of which are standard methods for quantitating the reductase activity produced in metabolically active cells (22). […] Verification that these compounds act against each of the four serotypes of dengue was done with yield assays carried out at several drug concentrations, and the titer determined for each.
Compounds that were active in the primary screen were tested for activity in viral yield assays. […] The EC50 was calculated through ExcelFit. Activities against other serotypes of dengue virus were determined in a similar way.

Data set [1] relates to Dengue-2 (Strain New Guinea C). Nature of the data set: Viral yield assay against Dengue-2 in Vero cells. Format: cell-based, Dengue virus. The conditions noted are these: Dengue virus, Vero cells. The method in brief: (§1)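 Progeny virus from compound-treated Vero monolayers infected at an MOI of 0.1 is collected after 48 h at 37° C and titered on Vero cells. DMSO serves as control.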

The subject of the next data set is DENV-3. Description: Viral yield assay against DENV-3 in Vero cells. Format: cell-based. The conditions noted are these: Dengue virus, DENV3, viral yield assay. The method in brief:
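Vero cells were infected with dengue-2 at MOI 0.1, treated with compound (DMSO control), and kept at 37° C. They were harvested 48 hours post infection and yield was titered on Vero cells. EC50 came from the yield curve, and the other serotypes were run in a similar way.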

For a further data set, the system named is DENV-4. Nature of the data set: Viral yield assay against DENV-4 in Vero cells. The data set is classed as cell-based. The conditions noted are these: Dengue virus, DENV4, viral yield assay. The essentials:
as §1

Another data set concerns DENV-1. Description: Viral yield assay against DENV-1 in Vero cells. The conditions noted are these: Dengue virus, DENV1, viral yield assay. The data set is classed as cell-based. The essentials: as §1
In data set [2] the test system is dengue. As to conditions: mouse model; cited from earlier work.
The test system of data set [3] is dengue. The conditions noted are these: cited from earlier work.
Where [4] appears, read: DENV2, viral yield assay, MOI 0.1, 48 hours post infection, read-out: Activity (EC50 in μM) DENV-2.

Regarding `Nc1c(C(=O)Nc2nnc(-c3ccccc3)s2)sc2nc3c(cc12)CCCCC3` [Compound 1, 3-Amino-6,7,8,9-tetrahydro-5H-1-thia-10-aza-cyclohepta[f]indene-2-carboxylic acid (5-phenyl-[1,3,4]thiadiazol-2-yl)-amide], in the data set with four serotypes of dengue, the “Activity against serotypes of dengue” value is on record as “activity against all four serotypes of dengue”. The EC50 in data set [1] (MOI 0.1, harvested 48 hours post infection, read-out: Activity (EC50 class) against Dengue-2 Virus in Vero cells) is less than 5 µM.
For `CSc1ccc(NC(=O)c2sc3nc(-c4ccc(F)cc4)ccc3c2N)cc1` [Compound 625, 3-amino-6-(4-fluorophenyl)-N-(4-methylsulfanylphenyl)thieno[2,3-b] pyridine-2-carboxamide], the EC50 in the data set on DENV-3 was less than 5 µM; in the data set on DENV-4 it was more than 25 µM; with DENV-1, less than 5 µM; in data set [1] (setting [4]), less than 5 µM.
For the compound `COc1ccc(-c2ccc3c(N)c(C(=O)Nc4ccc(Br)cc4F)sc3n2)cc1OC` [Compound 628, 3-amino-N-(4-bromo-2-fluoro-phenyl)-6-(3,4-dimethoxyphenyl)thieno[2,3-b] pyridine-2-carboxamide], the EC50 (with DENV-3; in the data set with DENV-4; in the data set with DENV-1; in data set [1] (setting [4])) was less than 5 µM in each case.
For the compound `Nc1c(C(=O)Nc2ccc(F)c(F)c2)sc2nc(-c3cc(Cl)ccc3Cl)ccc12` [Compound 630, 3-amino-6-(2,5-dichlorophenyl)-N-(3,4-difluorophenyl)thieno[2,3-b]pyridine-2-carboxamide], the EC50 (with DENV-3; in the data set with DENV-4; with DENV-1; in data set [1] (setting [4])) was less than 5 µM throughout.
Regarding `Nc1c(C(=O)Nc2ccccc2)sc2nc(-c3ccc(Cl)cc3)ccc12` [Compound 631, 3-amino-6-(4-chlorophenyl)-N-phenyl-thieno[2,3-b]pyridine-2-carboxamide], the EC50 (in the data set on DENV-3; with DENV-4; in the data set on DENV-1; in data set [1] (setting [4])) was less than 5 µM throughout.
Regarding `CCOc1ccc(NC(=O)c2sc3nc(-c4ccc(OC)c(OC)c4)ccc3c2N)cc1` [Compound 635, 3-amino-6-(3,4-dimethoxyphenyl)-N-(4-ethoxyphenyl)thieno[2,3-b]pyridine-2-carboxamide], the EC50 with DENV-3 was more than 25 µM; in the data set with DENV-4, less than 5 µM; in the data set on DENV-1, less than 5 µM; in data set [1] (setting [4]) it was less than 5 µM.
For `Cc1ccc(NC(=O)c2sc3nc(-c4ccc(C)cc4)ccc3c2N)cc1` [Compound 636, 3-amino-N,6-bis(p-tolyl)thieno[2,3-b] pyridine-2-carboxamide], the EC50 (in the data set with DENV-3; in the data set with DENV-4; with DENV-1; in data set [1] (setting [4])) was less than 5 µM throughout.
Turning to `CCOC(=O)c1ccc(NC(=O)c2sc3nc(-c4ccc(C)cc4)ccc3c2N)cc1` [Compound 638, ethyl 4-[[3-amino-6-(p-tolyl)thieno [2,3-b]pyridine-2-carbonyl]amino] benzoate], the EC50 (with DENV-3; in the data set with DENV-4; in the data set with DENV-1; in data set [1] (setting [4])) was less than 5 µM each time.
For the compound `COC(=O)c1ccc(NC(=O)c2sc3nc(-c4ccc(Cl)cc4)ccc3c2N)cc1` [Compound 645, methyl 4-[[3-amino-6-(4-chlorophenyl)thieno[2,3-b]pyridine-2-carbonyl]amino]benzoate], the EC50 (with DENV-3; in the data set with DENV-4; with DENV-1; in data set [1] (setting [4])) was less than 5 µM throughout.
For `Nc1c(C(=O)Nc2ccc(F)cc2)sc2nc(-c3ccc(Cl)cc3)ccc12` [Compound 646, 3-amino-6-(4-chlorophenyl)-N-(4-fluorophenyl)thieno[2,3-b]pyridine-2-carboxamide], the EC50 (in the data set on DENV-3; in the data set with DENV-4; in the data set with DENV-1; in data set [1] (setting [4])) was less than 5 µM in each case.
In the case of `Cc1ccc(-c2ccc3c(N)c(C(=O)Nc4ccc(Cl)cc4)sc3n2)cc1` [Compound 648, 3-amino-N-(4-chlorophenyl)-6-(p-tolyl) thieno[2,3-b]pyridine-2-carboxamide], the EC50 (in the data set on DENV-3; in the data set on DENV-4; with DENV-1; in data set [1] (setting [4])) was less than 5 µM each time.
Take `Cc1ccc(-c2ccc3c(N)c(C(=O)Nc4ccccc4Cl)sc3n2)cc1` [Compound 650, 3-amino-N-(2-chlorophenyl)-6-(p-tolyl) thieno[2,3-b]pyridine-2-carboxamide]: the EC50 (in the data set with DENV-3; in the data set with DENV-4; in the data set with DENV-1; in data set [1] (setting [4])) was less than 5 µM throughout.
`COc1ccc(NC(=O)c2sc3nc(-c4ccc5c(c4)OCO5)ccc3c2N)c(OC)c1` [Compound 651, 3-amino-6-(1,3-benzodioxol-5-yl)-N-(2,4-dimethoxyphenyl)thieno[2,3-b]pyridine-2-carboxamide]: the EC50 (in the data set with DENV-3; in the data set with DENV-4; in the data set on DENV-1; in data set [1] (setting [4])) was less than 5 µM in each case.
Turning to `COc1ccc(NC(=O)c2sc3nc(-c4ccc(Cl)cc4)ccc3c2N)c(OC)c1` [Compound 652, 3-amino-6-(4-chlorophenyl)-N-(2,4-dimethoxyyphenyl)thieno[2,3-b]pyridine-2-carboxamide], the EC50 (in the data set with DENV-3; in the data set on DENV-4; with DENV-1; in data set [1] (setting [4])) was less than 5 µM each time.
Consider `NC(=O)c1ncn([C@@H]2O[C@H](CO)[C@@H](O)[C@H]2O)n1` [ribavirin, Ribavirin], for which the Protection against dengue result with dengue [2] and in the data set with dengue [3] (rhesus monkey model) was “did not show protection” each time. The Adverse effects induced result in the data set on dengue [3] (animal model, literature) was “induced anemia and thrombocytosis”.
